Assay results taken from patent publication US12533350B2, “Use of melanocortin-1 receptor agonist” (TANABE PHARMA CORPORATION, priority 2022, dated 2026).

Tested on: lung tissue gene expression in BLM-induced SSc model
Conditions: 0.3 mg/kg
Description: Total RNA of mouse lung tissue samples of PBSY_vehicle (control group without disease), BLM_vehicle (control group with disease), and BLM_Compound A (0.3 mg/kg) obtained from the BLM-induced SSc model (prophylactic evaluation) was used for analysis. The purity, concentration, and quality of the RNA samples were confirmed with NanoDrop 2000 (Thermo Fisher Scientific) and Agilent 2100 bioanalyser (Agilent Technologies). The RNA was then Cy3-labeled using a Low Input Quick Amp Labeling Kit, one-color (Agilent Technologies). Labeled cRNA samples were fragmented, and then hybridized with the Agilent SurePrint G3 Mouse GE v2 8×60 K Microarray (Agilent Technologies) using a Gene Expression Hybridization Kit (Agilent Technologies). After hybridization, the microarray was washed with the Gene Expression Wash Buffers Pack (Agilent Technologies) and imaged with a scanner to detect the signals. Signal intensities were evaluated with Agilent Feature Extraction software 12.0.
Bioinformatics analysis in this study was performed with software, including GeneSpring GX 14.9.1, IPA 2019 autumn, and Microsoft Excel 2010. Genes that fluctuated ≥2 fold in BLM_vehicle group in comparison with those of the PBS_vehicle group and that satisfied a p-value <0.05 of the moderated t-test were defined as “differentially expressed genes (DEGs) in the disease model”. Among DEGs, the genes in the Compound A treatment group that fluctuated ≥1.5 fold in the opposite direction and met a p-value <0.05 of the moderated t-test in comparison with those of the BLM_vehicle group were defined as “DEGs by Compound A treatment”. DEGs were inputted into IPA and two types of calculations were performed: “Canonical pathways” and “Diseases or functions”. Here, “Canonical pathways” is described as “pathways” and “Diseases or functions” is described as “category”. The former contains a list for a series of gene interactions and the latter is a list related to diseases and biological functions. These datasets are registered in the IPA software. Initially, the Fisher's exact test was used to calculate the probability of overlap between two sets of genes. Thereafter, downstream effect analysis (DSEA) was used to calculate the activation z-score. DSEA is a technique for predicting the direction of change in expression patterns (either activation or inhibition) based on the expected causal effects between genes and functions. Based on the results of the DSEA analysis, information about the cell type (macrophages, neutrophils, mononuclear leukocytes, T-lymphocytes, B-lymphocytes, smooth muscle cells, endothelial cells, epithelial cells, and fibroblasts) that may be involved in the pathogenesis of SSc was extracted. Subsequently, information regarding biological functions and molecular signaling pathways, such as inflammation/immune abnormality, vascular dysfunction, and fibrosis, involved in the pathogenesis of SSc are extracted.
DNA microarray analysis was carried out using lung samples from a BLM-induced SSc model (prevention model) to which 0.3 mg/kg of Compound A was administered. Bioinformatics analysis was carried out using IPA software, and two datasets were used to perform two types of calculations (“Canonical pathways” and “Diseases or functions”). Downstream effect analysis was used to calculate the activation z-score.

COC[C@H]1CN(C(=O)[C@]2(F)CN(C3CCCC3)C[C@H]2c2ccc(OC)cc2)C[C@@H]1c1ccc(C(F)(F)F)cc1N1CCC(C(=O)O)CC1 [Compound A, 1-{2-[(3S,4R)-1-{[(3R,4R)-1-cyclopentyl-3-fluoro-4-(4-methoxyphenyl)pyrrolidin-3-yl]carbonyl}-4-(methoxymethyl)pyrrolidin-3-yl]-5-(trifluoromethyl)phenyl}piperidine-4-carboxylic acid]
suppressed: category activation of antigen-presenting cells (activated by BLM) (IPA downstream effect analysis) | category angiogenesis (activated by BLM) (IPA downstream effect analysis) | category atherosclerosis (activated by BLM) (IPA downstream effect analysis) | category inflammatory response (activated by BLM) (IPA downstream effect analysis) | category vasculogenesis (activated by BLM) (IPA downstream effect analysis) | category vaso-occlusion (activated by BLM) (IPA downstream effect analysis) | T-lymphocyte-related categories (IPA activation z-score) (not changed by BLM) | endothelial cell-related categories (IPA activation z-score) (not changed by BLM)
reversed: gene expression fluctuation induced by BLM in IL-6 pathway genes (upstream and downstream)
affected: IL-6 signaling pathway (IPA canonical pathways) | PPAR signaling pathway (IPA canonical pathways) | TREM1 signaling pathway (IPA canonical pathways) | oncostatin M signaling pathway (IPA canonical pathways)
1477: number of DEGs by Compound A treatment (≥1.5 fold in opposite direction, p<0.05 vs BLM_vehicle) (among 3337 DEGs in the disease model)
downregulated the most: expression of the IL-6 gene among component genes of the IL-6 signaling pathway (remarkably upregulated by BLM)
